Source: patent US10065948B2, “Histone deacetylase inhibitors and compositions and methods of use thereof” (CHDI Foundation, Inc., priority 2014, dated 2018)

Legend:
[1] = test system: cellular histone deacetylase enzymatic activity in Jurkat E6-1 cells; assay: Inhibition of cellular HDAC activity, Boc-Lys(Tfa)-AMC substrate (Cell Lys-TFA); type: cell-based
Method in brief: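 Jurkat E6-1 cells (75,000/well) were treated with a 16-point compound dilution for 2 h at 37 °C, then exposed to Boc-Lys(Tfa)-AMC for 3 h. Lysis buffer containing trypsin was added overnight (15-16 h), and AMC fluorescence was read at Ex 355/Em 460 nm.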

[2] = test system: cellular histone deacetylase activity (Lys-Ac); assay: Inhibition of cellular HDAC activity (Cell Lys-Ac); type: cell-based; details: Lys-Ac substrate
[3] = molecular target: Histone Deacetylase 4 (HDAC4) catalytic domain (Homo sapiens (Human), UniProt P56524); assay: Biochemical HDAC inhibition assay, fluorogenic substrate Boc-Lys(Tfa)-AMC
Protocol: The potency of compounds is quantified by measuring the Histone Deacetylase 4 (HDAC4) catalytic domain enzymatic activity using the fluorogenic substrate, Boc-Lys(Tfa)-AMC. The substrate is deacetylated to Boc-Lys-AMC by HDAC4. Cleavage by trypsin results in the release of the fluorophore AMC from the deacetylated substrate. The fluorescence of the sample is directly related to the histone deacetylase activity in the sample.
Stocks of 60 μL aliquots of the 10 mM compound in DMSO are prepared and stored at −20° C. From one stock aliquot of each compound to be tested and the reference compound, a 16-point serial dilution is prepared according to Table 1 using a 125 μL 16-channel Matrix multi-channel pipette (Matrix Technologies Ltd).
2 μL (200×) of each diluted solution and each control (full activity: 100% DMSO alone or full inhibition 1 mM) is stamped into V-bottomed polypropylene 384-well compound plates using either the Bravo (384-well head from Agilent) or 12.5 μL 16-channel Matrix multi-channel pipette (Matrix Technologies Ltd). Each well with the 200× compound solution is diluted 1:20 by the addition of 38 μL assay buffer+DMSO (10.5% DMSO, 45 mM Tris-HCl, 123 mM NaCl, 2.4 mM KCl, and 0.9 mM MgCl2 at pH 8.0 and equilibrated to room temperature).
The HDAC4 catalytic domain enzyme is human catalytic domain HDAC4 protein (amino acids 648-1032) with a C-terminal 6× histidine tag, produced by BioFocus. A working solution of enzyme is prepared from a 500 μg/mL stock aliquot of HDAC4 catalytic domain (thawed on ice) diluted to 0.2 μg/mL with assay buffer (50 mM Tris-HCl, 137 mM NaCl, 2.7 mM KCl, and 1 mM MgCl2 at pH 8 and equilibrated to room temperature) just prior to the addition of the enzyme to the assay.
5× (50 μM) substrate is prepared just prior to the addition to the assay. A 1 mM substrate stock is made by diluting a 100 mM Boc-Lys(Tfa)-AMC in DMSO solution 1:100 by adding it drop-wise to assay buffer (equilibrated to room temperature) while vortexing at slow speed to prevent precipitation. The 5× substrate is prepared by diluting the 1 mM substrate solution 1:20 by adding it drop-wise to assay buffer (equilibrated to room temperature) while vortexing at slow speed to prevent precipitation.
3× (30 μM) Developer/Stop Solution is prepared just prior to addition to the plate by diluting a stock solution of 10 mM reference compound 1:333 in 25 mg/mL trypsin (PAA Laboratories Ltd.) equilibrated to room temperature.
5 μL of each solution of 1:20 diluted compound from above is transferred to a clear bottomed, black, 384-well assay plate using the Bravo or the Janus (384-well MDT head from Perkin Elmer). Using a 16-channel Matrix multi-channel pipette, 35 μL of the working solution of HDAC4 catalytic domain enzyme (0.2 μg/mL in assay buffer) is transferred to the assay plate. […] The assay plate is then shaken for two minutes on an orbital shaker at 900 rpm (rotations per minute). Next the plate is incubated for 15 minutes at 37° C. The reaction is stopped by adding 25 μL of 3× (30 μM) developer/stop solution to the assay plates using either the Bravo, Janus or a 16-channel Matrix multi-channel pipette. Assay plates are then shaken for 5 minutes on an orbital shaker at 1200 rpm. Next, the assay plates are incubated at 37° C. for 1 hour in a tissue culture incubator. Finally, the fluorescence is measured (Excitation: 355 nm, Emission: 460 nm) using PerkinElmer EnVision in top read mode.

[4] = Homo sapiens, Jurkat E6.1, Lys-TFA substrate

Chain of Histone Deacetylase 4 (HDAC4) catalytic domain (P56524 648-1032): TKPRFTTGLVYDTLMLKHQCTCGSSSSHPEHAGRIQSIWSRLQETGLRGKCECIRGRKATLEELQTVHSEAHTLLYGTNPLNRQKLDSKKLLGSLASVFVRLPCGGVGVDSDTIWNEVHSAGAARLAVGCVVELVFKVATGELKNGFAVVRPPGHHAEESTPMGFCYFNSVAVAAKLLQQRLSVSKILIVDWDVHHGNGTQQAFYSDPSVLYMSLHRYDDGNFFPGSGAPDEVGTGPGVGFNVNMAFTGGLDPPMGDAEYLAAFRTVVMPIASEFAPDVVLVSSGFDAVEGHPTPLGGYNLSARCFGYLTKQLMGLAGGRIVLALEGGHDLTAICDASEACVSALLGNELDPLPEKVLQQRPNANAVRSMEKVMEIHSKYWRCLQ

| SMILES | IC50 [1, 4] | IC50 [2] | IC50 [3] | IC50 ([1]; Lys-TFA substrate) |
| --- | --- | --- | --- | --- |
| Cc1c(F)cccc1C1(C(=O)NO)CCc2nc(-c3ccccc3)ncc2C1 (stereo not drawn) [Example 47, 6-(3-Fluoro-2-methylphenyl)-N-hydroxy-2-phenyl-5,6,7,8-tetrahydroquinazoline-6-carboxamide] | 1100 nM | > 50000 nM | 3200 nM | – |
| Cc1ccccc1-c1nc2c(s1)[C@](C(=O)NO)(c1cccc(F)c1C)CC2 [Example 73, (S)-6-(3-Fluoro-2-methylphenyl)-N-hydroxy-2-(o-tolyl)-5,6-dihydro-4H-cyclopenta[d]thiazole-6-carboxamide] | 630 nM | > 50000 nM | 143 nM | – |
| Cc1c(F)cccc1[C@]1(C(=O)NO)Cc2cn(-c3ncccc3F)nc2C1 [Example 29, (S)-5-(3-Fluoro-2-methylphenyl)-2-(3-fluoropyridin-2-yl)-N-hydroxy-2,4,5,6-tetrahydrocyclopenta[c]pyrazole-5-carboxamide] | 69 nM | > 50000 nM | 104 nM | – |
| Cc1c(F)cccc1C1(C(=O)NO)CCc2nc(-c3cncnc3)sc2C1 (stereo not drawn) [Example 43, 6-(3-Fluoro-2-methylphenyl)-N-hydroxy-2-(pyrimidin-5-yl)-4,5,6,7-tetrahydrobenzo[d]thiazole-6-carboxamide] | 660 nM | > 50000 nM | 1900 nM | – |
| Cc1c(F)cccc1[C@]1(C(=O)NO)Cc2cnn(-c3ccc(F)cc3F)c2C1 [Example 17, (S)-1-(2,4-Difluorophenyl)-5-(3-fluoro-2-methylphenyl)-N-hydroxy-1,4,5,6-tetrahydrocyclopenta[c]pyrazole-5-carboxamide] | 39 nM | > 50000 nM | 29 nM | – |
| Cc1cccc(C)c1-n1ncc2c1C[C@](C(=O)NO)(c1cccc(F)c1C)C2 [Example 13, (S)-1-(2,6-Dimethylphenyl)-5-(3-fluoro-2-methylphenyl)-N-hydroxy-1,4,5,6-tetrahydrocyclopenta[c]pyrazole-5-carboxamide] | 12 nM | > 50000 nM | 27 nM | – |
| Cc1c(F)cccc1C1(C(=O)NO)Cc2nc(-c3ccccc3F)sc2C1 (single isomer, unassigned) [Example 61, E1-(abs)-5-(3-Fluoro-2-methylphenyl)-2-(2-fluorophenyl)-N-hydroxy-5,6-dihydro-4H-cyclopenta[d]thiazole-5-carboxamide] | – | > 50000 nM | 480 nM | 120 nM |
| Cc1c(F)cccc1[C@]1(C(=O)NO)Cc2cnn(-c3cnccn3)c2C1 [Example 19, (S)-5-(3-Fluoro-2-methylphenyl)-N-hydroxy-1-(pyrazin-2-yl)-1,4,5,6-tetrahydrocyclopenta[c]pyrazole-5-carboxamide] | 53 nM | > 50000 nM | 38 nM | – |
| Cc1cccc(-n2cc3c(n2)C[C@](C(=O)NO)(c2cccc(F)c2C)C3)c1 [Example 25, (S)-5-(3-fluoro-2-methylphenyl)-N-hydroxy-2-(m-tolyl)-2,4,5,6-tetrahydrocyclopenta[c]pyrazole-5-carboxamide] | 160 nM | > 50000 nM | 76 nM | – |
| Cc1c(F)cccc1C1(C(=O)NO)CCc2nn(Cc3ccc(F)cc3)cc2C1 (stereo not drawn) [Example 36, 5-(3-Fluoro-2-methylphenyl)-1-(4-fluorobenzyl)-N-hydroxy-4,5,6,7-tetrahydro-1H-indazole-5-carboxamide and 5-(3-fluoro-2-methylphenyl)-2-(4-fluorobenzyl)-N-hydroxy-4,5,6,7-tetrahydro-2H-indazole-5-carboxamide] | – | > 50000 nM | 600 nM | 370 nM |
| COc1ccc(-c2nc3c(s2)C[C@@](C(=O)NO)(c2cccc(F)c2C)C3)nc1 [Example 71, (R)-5-(3-Fluoro-2-methylphenyl)-N-hydroxy-2-(5-methoxypyridin-2-yl)-5,6-dihydro-4H-cyclopenta[d]thiazole-5-carboxamide] | 56 nM | > 50000 nM | 95 nM | – |
| Cc1c(F)cccc1C1(C(=O)NO)CCc2c(cnn2-c2ccccc2)C1 (single isomer, unassigned) [Example 32, E2-(abs)-5-(3-fluoro-2-methylphenyl)-N-hydroxy-1-phenyl-4,5,6,7-tetrahydro-1H-indazole-5-carboxamide] | – | > 50000 nM | 17300 nM | 2900 nM |
| Cc1cc(-c2nc3c(s2)C[C@@](C(=O)NO)(c2cccc(F)c2C)C3)n(C)n1 [Example 70, (R)-2-(1,3-Dimethyl-1H-pyrazol-5-yl)-5-(3-fluoro-2-methylphenyl)-N-hydroxy-5,6-dihydro-4H-cyclopenta[d]thiazole-5-carboxamide] | 79 nM | > 50000 nM | 122 nM | – |
| Cc1c(F)cccc1[C@]1(C(=O)NO)Cc2cnn(-c3cccc(F)c3)c2C1 [Example 6, (S)-5-(3-Fluoro-2-methylphenyl)-1-(3-fluorophenyl)-N-hydroxy-1,4,5,6-tetrahydrocyclopenta[c]pyrazole-5-carboxamide] | 67 nM | > 50000 nM | 44 nM | – |
| Cc1c(F)cccc1[C@]1(C(=O)NO)Cc2cnn(-c3c(F)cccc3Cl)c2C1 [Example 14, (S)-1-(2-Chloro-6-fluorophenyl)-5-(3-fluoro-2-methylphenyl)-N-hydroxy-1,4,5,6-tetrahydrocyclopenta[c]pyrazole-5-carboxamide] | 11 nM | > 50000 nM | 15 nM | – |
| Cc1c(F)cccc1C1(C(=O)NO)CCc2cn(CC(F)(F)F)nc2CC1 (single isomer, unassigned) [Example 84, E1-(abs)-6-(3-Fluoro-2-methylphenyl)-N-hydroxy-2-(2,2,2-trifluoroethyl)-2,4,5,6,7,8-hexahydrocyclohepta[c]pyrazole-6-carboxamide] | 1400 nM | > 50000 nM | 480 nM | – |
| Cc1c(F)cccc1[C@]1(C(=O)NO)CCc2c1cnn2Cc1ccccc1 [Example 93, (R)-1-benzyl-4-(3-fluoro-2-methylphenyl)-N-hydroxy-1,4,5,6-tetrahydrocyclopenta[c]pyrazole-4-carboxamide] | 170 nM | > 50000 nM | 27 nM | – |
| Cc1cc(F)ccc1-c1nc2c(s1)CC(C(=O)NO)(c1cccc(F)c1C)C2 (single isomer, unassigned) [Example 74, E1-(abs)-5-(3-Fluoro-2-methylphenyl)-2-(4-fluoro-2-methylphenyl)-N-hydroxy-5,6-dihydro-4H-cyclopenta[d]thiazole-5-carboxamide] | – | > 50000 nM | 780 nM | 540 nM |
| Cc1c(F)cccc1[C@]1(C(=O)NO)Cc2cnn(-c3cccc(Cl)c3F)c2C1 [Example 10, (S)-1-(3-Chloro-2-fluorophenyl)-5-(3-fluoro-2-methylphenyl)-N-hydroxy-1,4,5,6-tetrahydrocyclopenta[c]pyrazole-5-carboxamide] | 17 nM | > 50000 nM | 17 nM | – |
| Cc1c(F)cccc1[C@]1(C(=O)NO)Cc2cnc(-c3ccccc3Cl)nc2C1 [Example 48, (S)-2-(2-Chlorophenyl)-6-(3-fluoro-2-methylphenyl)-N-hydroxy-6,7-dihydro-5H-cyclopenta[d]pyrimidine-6-carboxamide] | 60 nM | > 50000 nM | 156 nM | – |
